The source of these data is patent US20060160869A1, “Ubiquitin ligase inhibitors” (Rigel Pharmaceuticals, Inc., priority 2005, published 2006).

For experiment [1], the target named is E3 (His-APC11/APC2, "APC") (Homo sapiens, UniProt Q9NYG5+Q9UJX6). Description: Plate-based E3 ligase assay (APC FLAG), auto-ubiquitination. Type of experiment: biochemical. How it is done:
E3 (His-APC11/APC2—“APC”) auto-ubiquitination was measured as described in U.S. patent application Ser. No. 09/826,312 (Publication No. US-2002-0042083-A1), which is incorporated herein in its entirety. Details of the protocol are described below. Activity in the presence of the compound was determined relative to a parallel control in which only DMSO was added. Values of the IC50 were typically determined using 6 or 8 different concentrations of the compound, although as few as 2 concentrations may be used to approximate the IC50 value.
Nickel-coated 96-well plates (Pierce 15242) were blocked for 1 hour with 100 μl of blocking buffer at room temperature. The plates were washed 4 times with 225 μl of 1×PBS and 80 μl of the reaction buffer were added that contained 100 ng/well of Flag-ubiquitin. To this, 10 μl of the test compound diluted in DMSO were added. After the test compound was added, 10 μl of E1 (human), E2 (Ubch5c), and APC in Protein Buffer was added to obtain a final concentration of 5 ng/well of E1, 20 ng/well: of E2 and 100 ng/well of APC. The plate were shaken for 10 minutes and incubated at room temperature for 1 hour. After incubation, the plates were washed 4 times with 225 μl of 1×PBS and 100 μl/well of Antibody Mix were added to each well. The plates were incubate at room temperature for another hour after which they were washed 4 times with 225 μl of 1×PBS and 100 μl/well of Lumino substrate were added to each well. The luminescence was measured by using a BMG luminescence microplate reader.
APC Plate/gel is Anaphase Promoting Complex. This protein also belongs to E3 RING finger ligase group.

Experiment [2] concerns the target E2 (Ubch5c) (Homo sapiens, UniProt P61077). Description: E2 ligase assay, E2 auto-ubiquitination. It counts as biochemical. Conditions: Table 2. As for the experimental part:
E2 (Ubch5c) auto-ubiquitination was measured as described in U.S. patent application Ser. No. 09/826,312 (Publication No. US-2002-0042083-A1), which is incorporated herein in its entirety. Details of the protocol are described below. Activity in the presence of the test compound was determined relative to a parallel control in which only DMSO was added. The IC50 values were typically determined using 6 or 8 different concentrations of compound, although as few as 2 concentrations may be used to approximate IC50 values.
Corning 96-well plates (Corning 3650) were blocked with 100 μl of Blocking Buffer for 1 hour at room temperature. The plates were washed for 4 times with 225 μl of 1×PBS and 80 μl of the reaction buffer were added that contained 100 ng/well of Flag-ubiquitin. To this, 10 μl of the test compound diluted in DMSO were added. After the test compound was added, 10 μl of E1 (human) and E2 (Ubch5c) in Protein Buffer were added to obtain a final concentration of 5 ng/well of E1 and 20 ng/well of E2. The plates were shaken for 10 minutes and incubated at room temperature for 1 hour. After incubation, the reaction was stopped by adding 25 μl of loading buffer (non-reducing) per well and the plates were heated at 95° C. for 5 minutes. An aliquot of each well was run on a 10% NugePage Gel and analyzed by Western Blot using the antibody mix and Lumino substrate described below. The luminescence was measured using a BMG luminescence microplate reader.

Experiment [3] deals with HCT116 cells. Description: PAD anti-proliferation assay, HCT. Type of experiment: cell-based. The following applies: Homo sapiens, HCT-116, 48 hours. How it is done:
A549 (ATCC# CCL 185), HeLa (ATCC# CCL 2), HCT116 (ATCC# CCL-247), and H 1299 (ATCC# CRL-5803) cells were maintained in T175 flasks following the ATCC recommended media and handling procedures. Flasks reaching approximately 70% confluency were trypsinized and resuspended in RPMI media (Cell Gro catalog number 10 040 CM) modified to contain 5% FBS, 100 ug/mlPen/Strep (Cell Gro catalog number 30 002 CL), and 0.3 mg/ml L Glutamine (Cell Gro catalog number 25 003 CL). A 20,000 cells/ml solution was made for plating. Cells were plated in black Packard 96 well plates by placing 100 μl per well (2,000 cells per well).
Compounds and additional media were added 24′ hours after cell plating. A compound master plate was created with concentrations 500 times greater than the final concentration added to the cells. All compound testing was done in duplicate using 3 fold dilutions starting with 10 mM. All outside wells (and 4 internal wells) were DMSO controls. Taxol and at least one additional control were run on all plates. Three microliters of the compound master plate were added to deep well blocks containing 750 μl of RPMI media. One hundred microliters were transferred from the compound/media deep well blocks to the plated cells resulting in a 500 fold dilution of the compounds. Cells were grown at 37° C., 5% CO2 for 48 hours.
Cells to be analyzed by photography were fixed and stained. One hundred microliters of media were removed and 100 μl of 2% paraformaldehyde was added to each well. Plates were left on the benchtop for 45 minutes. A staining solution containing 1.55 μl of 1 mg/ml DAPI added to 18.75 ml PBS was warmed for 15 minutes at 37° C. The cells were aspirated prior to washing with 100 μl of PBS. Seventy microliters of PBS were aspirated and 170 μl of the DAPI solution were added to each well of fixed cells. Plates were left at room temperature for one hour then aspirated and washed twice with 100 μl of PBS. The stained cells were left at 4° C. for a minimum of 16 hours before photographic analysis with Array Scan II (Cellomics). Analysis of the photographic images to determine numbers of live cells (proliferation), apoptotic cells and dead cells, were according to the methods described in U.S. Provisional Patent Application Ser. No. 60/406,714, which incorporated herein in its entirety.

Experiment [4] has as its system DLD-1 cells. Put plainly: PAD anti-proliferation assay, DLD-1. The following applies: Homo sapiens, 48 hours. It counts as cell-based.
[5] abbreviates: Table 3, read-out: APC Plate IC50.

Structures are written as SMILES. Where two headings read alike, the source gives them in different places.

Sequence of E2 (Ubch5c) (P61077 whole entry): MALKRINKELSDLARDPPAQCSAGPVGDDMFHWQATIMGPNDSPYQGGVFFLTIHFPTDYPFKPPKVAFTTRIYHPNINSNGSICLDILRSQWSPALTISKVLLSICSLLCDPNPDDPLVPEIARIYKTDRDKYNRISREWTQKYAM
Sequence of E3 (His-APC11/APC2, "APC") (Q9NYG5 whole entry): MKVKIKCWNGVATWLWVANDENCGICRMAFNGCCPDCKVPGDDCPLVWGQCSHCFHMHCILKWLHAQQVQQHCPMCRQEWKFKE
Sequence of E3 (His-APC11/APC2, "APC") (Q9UJX6 whole entry): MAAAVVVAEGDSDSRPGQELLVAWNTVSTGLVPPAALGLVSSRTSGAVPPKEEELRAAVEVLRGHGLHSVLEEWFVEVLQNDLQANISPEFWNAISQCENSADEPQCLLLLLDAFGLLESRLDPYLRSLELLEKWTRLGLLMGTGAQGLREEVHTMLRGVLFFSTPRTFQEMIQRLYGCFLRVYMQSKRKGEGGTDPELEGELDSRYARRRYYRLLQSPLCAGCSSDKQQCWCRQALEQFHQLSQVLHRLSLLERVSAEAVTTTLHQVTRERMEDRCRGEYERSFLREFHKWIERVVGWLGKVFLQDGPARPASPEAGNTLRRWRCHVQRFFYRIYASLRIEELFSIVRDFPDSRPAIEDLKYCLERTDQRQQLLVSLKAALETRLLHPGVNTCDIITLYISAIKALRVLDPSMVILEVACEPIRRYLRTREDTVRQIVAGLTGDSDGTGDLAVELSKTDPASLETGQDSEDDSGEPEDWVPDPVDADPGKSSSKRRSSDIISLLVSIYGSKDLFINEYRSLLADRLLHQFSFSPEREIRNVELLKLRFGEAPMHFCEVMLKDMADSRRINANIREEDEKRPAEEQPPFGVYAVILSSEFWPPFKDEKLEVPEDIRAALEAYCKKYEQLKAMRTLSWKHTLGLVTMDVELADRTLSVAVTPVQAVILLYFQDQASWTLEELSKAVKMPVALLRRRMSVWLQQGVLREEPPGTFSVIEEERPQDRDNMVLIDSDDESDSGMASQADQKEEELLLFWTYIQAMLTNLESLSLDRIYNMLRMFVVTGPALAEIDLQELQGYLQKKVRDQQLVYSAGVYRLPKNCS

For `COc1cccc(-c2csc(N(CCOc3ccccc3)Cc3ccc(C(=O)N4CCNCC4)cc3)n2)c1` [compound 352], the 50% inhibitory concentration (IC50) (commonly the concentration at which inhibition is half-maximal) in experiment [1] (Table 2, read-out: APC IC50) was 1 to 20 µM; in experiment [1] (setting [5]) it was at least 20 µM; in experiment [2] it was at least 20 µM.

On to `COc1cccc(-c2csc(N(Cc3ccc(C(=O)N4CCNCC4)cc3)Cc3cccc(OC(F)(F)F)c3)n2)c1` [compound 351], for which the IC50 is 1 to 20 µM in experiment [1] (Table 2, read-out: APC IC50); 1 to 20 µM in experiment [1] (setting [5]); at least 20 µM in experiment [2]; 1 to 20 µM in experiment [3].

With `COc1cccc(CN(Cc2ccc(C(=O)N3CCNCC3)cc2)c2nc(-c3ccc(Br)cc3)cs2)c1OC` [compound 353], the IC50 in experiment [1] (Table 2, read-out: APC IC50) was 1 to 20 µM; in experiment [1] (setting [5]), 1 to 20 µM; in experiment [2], at least 20 µM; in experiment [3], 1 to 20 µM.

In the case of `O=C(c1ccc(CN(Cc2cccc(OC(F)(F)F)c2)c2nc(-c3ccc4ccccc4c3)cs2)cc1)N1CCNCC1` [compound 282, 4-(2-naphthyl)-N-[4-(piperazin-1-ylcarbonyl)benzyl]-N-[3-(trifluoromethoxy)benzyl]-1,3-thiazol-2-amine], the concentration for half-maximal inhibition (IC50) in experiment [1] (Table 2, read-out: APC IC50) was in the range of 1 to 20 µM; in experiment [1] (setting [5]), 1 to 20 µM; in experiment [3], 1 to 20 µM; in experiment [4], 1 to 20 µM.

For the molecule `O=C(c1ccc(CN(Cc2cccc(OC(F)(F)F)c2)c2nc(-c3ccccc3)cs2)cc1)N1CCNCC1` [compound 275], the IC50 in experiment [1] (Table 2, read-out: APC IC50) lay within 1 to 20 µM; in experiment [1] (setting [5]) it was 1 to 20 µM; in experiment [3], 1 to 20 µM; in experiment [4], 1 to 20 µM.

As for `O=C(c1ccc(CN(CCOc2ccccc2)c2nc(-c3ccc(Cl)c(Cl)c3)cs2)cc1)N1CCNCC1` [compound 360], the half-inhibitory concentration (IC50) in experiment [1] (Table 2, read-out: APC IC50) is 1 to 20 µM; in experiment [1] (setting [5]), 1 to 20 µM; in experiment [2], at least 20 µM; in experiment [3] it was 1 to 20 µM; in experiment [4], 1 to 20 µM.
